# Source: US10953100B2, “Compounds and therapeutic uses thereof” (priority 2015, dated 2021)
# Biological target: Anti-alpha galactosyl IgG antibody
# Assay: ELISA assay: streptavidin-captured biotin compound, binding of anti-alpha galactosyl IgG antibody
# Parameters: species or system human
# Details: geometric mean with standard error in brackets; streptavidin plate, anti-alpha galactosyl IgG 0.5 μg/mL; read-out: Concentration at half maximal binding
# Procedure: Compounds containing F (representing a carbohydrate molecule capable of binding to a human anti-alpha-galactosyl antibody) and L (as biotin) were assayed for binding at both ends of the compound using an enzyme-linked immunosorbent assay (ELISA). Streptavidin-coated plates captured biotin to the surface of the plate and the binding of anti-alpha galactosyl antibodies to the alpha-galactosyl moiety was reported by a secondary antibody labelled with HRP (Horse Radish Peroxidase).
# Compounds were titrated 1.5 fold from a top dose of 50 nM in phosphate buffered saline (PBS) (Sigma D8537)+0.025% DMSO (Dimethyl Sulphoxide, Sigma D8418). Streptavidin immobilizer 96-well plates (nunc 436014) were coated with 100 μL of compound at room temperature for 2 hours shaking at 500 rpm. Plates were washed with 2×200 μL PBS-T (PBS with 0.05% Tween 20 (Sigma P9416)) and 1×200 μL PBS-T with a 5 minute incubation shaking at room temperature, prior to being blocked for 1 hour at room temperature with 1% Bovine Serum Albumin (BSA, Sigma A2153) in PBS-T. After removing the blocking buffer, 50 μL of Anti-alpha galactosyl IgG antibody (Anti-alpha-galactosyl antibody was purified from human IVIG (Gammagard) by affinity purification using an alpha-galactosyl-HSA (Human Serum Albumin) sepharose column by Rockland Immunochemicals Inc.) at 0.5 μg/mL in PBS-T+1% BSA and incubated shaking at room temperature for 1 hour.
# Plates were washed 2×200 μL PBS-T and 3×200 μL PBS-T with a 5 minute incubation, shaking at room temperature before the addition of 50 μL 1:5000 Goat Anti-Human IgG-HRP (horseradish peroxidase) conjugate (Abcam ab97175). The plates were incubated shaking at room temperature for 1 hour before a final wash of 2×200 μL PBS-T and 3×200 μl PBS-T with a 5 minute incubation shaking at room temperature. 100 μL TMB buffer (3,3′,5,5′-tetramethylbenzidine, a chromogenic substrate for horseradish peroxidase) (Pierce 34021) was added to the plate and allowed to develop for 5-10 minutes before the samples were quenched with 50 μL 2M sulfuric acid (Sigma 258105). The absorbance was read at 450 nm on an Envision plate reader (Perkin Elmer). Results from wells (duplicate) were averaged and the 50% binding affinity calculated.
# The concentration at which half-maximal binding is achieved is reported as a geometric mean with standard error in brackets. The number of independent experiments is also reported. In order to achieve a signal both ends of the molecule are required to bind (biotin to streptavidin and alpha-galactosyl to anti-alpha galactosyl antibodies) simultaneously.
row,SMILES,EC50
1,CC(=O)NC1C(OCCCNC(=O)CCOCCOCCOCCOCCNC(=O)COc2ccc(-c3cc(OCC(=O)NCCOCCOCCOCCOCCC(=O)NCCCOC4OC(CO)C(OC5OC(CO)C(O)C(OC6OC(CO)C(O)C(O)C6O)C5O)C(O)C4NC(C)=O)cc(C(=O)NCCNC(=O)CCOCCOCCOCCOCCOCCOCCOCCOCCOCCOCCOCCOCCNC(=O)CCCCC4SCC5NC(=O)NC54)c3)cc2)OC(CO)C(OC2OC(CO)C(O)C(OC3OC(CO)C(O)C(O)C3O)C2O)C1O (stereo not shown) [Example 53],34.9 nM
2,CC(=O)NC1C(OCCCNC(=O)CCOCCOCCOCCOCCNC(=O)COc2cc(OCC(=O)NCCOCCOCCOCCOCCC(=O)NCCCOC3OC(CO)C(OC4OC(CO)C(O)C(OC5OC(CO)C(O)C(O)C5O)C4O)C(O)C3NC(C)=O)cc(-c3cc(OCC(=O)NCCOCCOCCOCCOCCC(=O)NCCCOC4OC(CO)C(OC5OC(CO)C(O)C(OC6OC(CO)C(O)C(O)C6O)C5O)C(O)C4NC(C)=O)cc(C(=O)NCCNC(=O)CCCCC4SCC5NC(=O)NC54)c3)c2)OC(CO)C(OC2OC(CO)C(O)C(OC3OC(CO)C(O)C(O)C3O)C2O)C1O (stereo not shown) [Example 18],6.7 nM
3,CC(=O)NC1C(O)[C@H](O[C@@H]2OC(CO)[C@H](O)C(O[C@H]3OC(CO)[C@H](O)C(O)C3O)C2O)C(CO)O[C@H]1OCCCNC(=O)CCCNC(=O)COc1cc(OCC(=O)NCCCC(=O)NCCCO[C@@H]2OC(CO)[C@@H](O[C@@H]3OC(CO)[C@H](O)C(O[C@H]4OC(CO)[C@H](O)C(O)C4O)C3O)C(O)C2NC(C)=O)cc(-c2cc(OCC(=O)NCCCC(=O)NCCCO[C@@H]3OC(CO)[C@@H](O[C@@H]4OC(CO)[C@H](O)C(O[C@H]5OC(CO)[C@H](O)C(O)C5O)C4O)C(O)C3NC(C)=O)cc(C(=O)NCCNC(=O)CCCC[C@@H]3SC[C@@H]4NC(=O)N[C@@H]43)c2)c1 (stereo partly shown) [Example 60],24.1 nM
4,CC(=O)N[C@H]1[C@H](OCCCNC(=O)COc2cc(-c3cccc(C(=O)NCCNC(=O)CCCC[C@@H]4SC[C@@H]5NC(=O)N[C@@H]54)c3)cc(OCC(=O)NCCCO[C@@H]3O[C@H](CO)[C@@H](O[C@@H]4O[C@H](CO)[C@H](O)[C@H](O[C@H]5O[C@H](CO)[C@H](O)[C@H](O)[C@H]5O)[C@H]4O)[C@H](O)[C@H]3NC(C)=O)c2OCC(=O)NCCCO[C@@H]2O[C@H](CO)[C@@H](O[C@@H]3O[C@H](CO)[C@H](O)[C@H](O[C@H]4O[C@H](CO)[C@H](O)[C@H](O)[C@H]4O)[C@H]3O)[C@H](O)[C@H]2NC(C)=O)O[C@H](CO)[C@@H](O[C@@H]2O[C@H](CO)[C@H](O)[C@H](O[C@H]3O[C@H](CO)[C@H](O)[C@H](O)[C@H]3O)[C@H]2O)[C@@H]1O [Example 55],27.4 nM
5,CC(=O)NC1C(OCCCNC(=O)CCOCCOCCOCCOCCNC(=O)COc2cc(OCC(=O)NCCOCCOCCOCCOCCC(=O)NCCCOC3OC(CO)C(OC4OC(CO)C(O)C(OC5OC(CO)C(O)C(O)C5O)C4O)C(O)C3NC(C)=O)cc(-c3cc(OCC(=O)NCCOCCOCCOCCOCCC(=O)NCCCOC4OC(CO)C(OC5OC(CO)C(O)C(OC6OC(CO)C(O)C(O)C6O)C5O)C(O)C4NC(C)=O)cc(C(=O)NCCNC(=O)CCOCCOCCOCCOCCOCCOCCOCCOCCOCCOCCOCCOCCNC(=O)CCCCC4SCC5NC(=O)NC54)c3)c2)OC(CO)C(OC2OC(CO)C(O)C(OC3OC(CO)C(O)C(O)C3O)C2O)C1O (stereo not shown) [Example 54],22.8 nM
6,CC(=O)NC1C(OCCCNC(=O)CCOCCOCCOCCOCCNC(=O)COc2cc(OCC(=O)NCCOCCOCCOCCOCCC(=O)NCCCOC3OC(CO)C(OC4OC(CO)C(O)C(OC5OC(CO)C(O)C(O)C5O)C4O)C(O)C3NC(C)=O)cc(-c3cc(C(=O)NCCNC(=O)CCCCC4SCC5NC(=O)NC54)c(OCC(=O)NCCOCCOCCOCCOCCC(=O)NCCCOC4OC(CO)C(OC5OC(CO)C(O)C(OC6OC(CO)C(O)C(O)C6O)C5O)C(O)C4NC(C)=O)cc3OCC(=O)NCCOCCOCCOCCOCCC(=O)NCCCOC3OC(CO)C(OC4OC(CO)C(O)C(OC5OC(CO)C(O)C(O)C5O)C4O)C(O)C3NC(C)=O)c2)OC(CO)C(OC2OC(CO)C(O)C(OC3OC(CO)C(O)C(O)C3O)C2O)C1O (stereo not shown) [Example 51],19.7 nM
7,CC(=O)N[C@H]1[C@H](OCCCNC(=O)COc2cc(OCC(=O)NCCCO[C@@H]3O[C@H](CO)[C@@H](O[C@@H]4O[C@H](CO)[C@H](O)[C@H](O[C@H]5O[C@H](CO)[C@H](O)[C@H](O)[C@H]5O)[C@H]4O)[C@H](O)[C@H]3NC(C)=O)cc(-c3cc(OCC(=O)NCCCO[C@@H]4O[C@H](CO)[C@@H](O[C@@H]5O[C@H](CO)[C@H](O)[C@H](O[C@H]6O[C@H](CO)[C@H](O)[C@H](O)[C@H]6O)[C@H]5O)[C@H](O)[C@H]4NC(C)=O)cc(C(=O)NCCNC(=O)CCCC[C@@H]4SC[C@@H]5NC(=O)N[C@@H]54)c3)c2)O[C@H](CO)[C@@H](O[C@@H]2O[C@H](CO)[C@H](O)[C@H](O[C@H]3O[C@H](CO)[C@H](O)[C@H](O)[C@H]3O)[C@H]2O)[C@@H]1O [Example 1],8.2 nM

# Second part, the compound after the results:
row,EC50,SMILES
1,15 nM,CC(=O)NC1C(OCCCNC(=O)COc2cccc(C(=O)NCCNC(=O)CCOCCOCCOCCOCCOCCOCCOCCOCCOCCOCCOCCOCCNC(=O)CCCCC3SCC4NC(=O)NC43)c2)OC(CO)C(OC2OC(CO)C(O)C(OC3OC(CO)C(O)C(O)C3O)C2O)C1O (stereo not shown) [Example 3]
2,29.9 nM,CC(=O)N[C@H]1[C@H](OCCCNC(=O)COc2cc(OCC(=O)NCCCO[C@@H]3O[C@H](CO)[C@@H](O[C@@H]4O[C@H](CO)[C@H](O)[C@H](O[C@H]5O[C@H](CO)[C@H](O)[C@H](O)[C@H]5O)[C@H]4O)[C@H](O)[C@H]3NC(C)=O)cc(-c3cccc(-c4cccc(C(=O)NCCNC(=O)CCCC[C@@H]5SC[C@@H]6NC(=O)N[C@@H]65)c4)c3)c2)O[C@H](CO)[C@@H](O[C@@H]2O[C@H](CO)[C@H](O)[C@H](O[C@H]3O[C@H](CO)[C@H](O)[C@H](O)[C@H]3O)[C@H]2O)[C@@H]1O [Example 61]
3,14.8 nM,CC(=O)NC1C(OCCCNC(=O)CCOCCOCCOCCOCCNC(=O)COc2ccc(-c3cc(OCC(=O)NCCOCCOCCOCCOCCC(=O)NCCCOC4OC(CO)C(OC5OC(CO)C(O)C(OC6OC(CO)C(O)C(O)C6O)C5O)C(O)C4NC(C)=O)cc(C(=O)NCCNC(=O)CCCCC4SCC5NC(=O)NC54)c3)cc2)OC(CO)C(OC2OC(CO)C(O)C(OC3OC(CO)C(O)C(O)C3O)C2O)C1O (stereo not shown) [Example 20]
4,21.2 nM,"CC(=O)N[C@H]1[C@H](OCCCNC(=O)COc2cccc(C(=O)NCCNC(=O)CCCC[C@@H]3SC[C@@H]4NC(=O)N[C@@H]43)c2)O[C@H](CO)[C@@H](O[C@@H]2O[C@H](CO)[C@H](O)[C@H](O[C@H]3O[C@H](CO)[C@H](O)[C@H](O)[C@H]3O)[C@H]2O)[C@@H]1O [Example 2, 3-(2-((3-(((2R,3R,4R,5S,6R)-3-Acetamido-5-(((2S,3R,4S,5S,6R)-3,5-dihydroxy-6-(hydroxymethyl)-4-(((2R,3R,4S,5R,6R)-3,4,5-trihydroxy-6-(hydroxymethyl)tetrahydro-2H-pyran-2-yl)oxy)tetrahydro-2H-pyran-2-yl)oxy)-4-hydroxy-6-(hydroxymethyl)tetrahydro-2H-pyran-2-yl)oxy)propyl)amino)-2-oxoethoxy)-N-(2-(5-((3aS,4S,6aR)-2-oxohexahydro-1H-thieno[3,4-d]imidazol-4-yl)pentanamido)ethyl)benzamide]"
5,37.3 nM,"CC(=O)N[C@H]1[C@H](OCCCNC(=O)CCCCC(=O)NCc2cccc(C(=O)NCCNC(=O)CCCC[C@@H]3SC[C@@H]4NC(=O)N[C@@H]43)c2)O[C@H](CO)[C@@H](O[C@@H]2O[C@H](CO)[C@H](O)[C@H](O[C@H]3O[C@H](CO)[C@H](O)[C@H](O)[C@H]3O)[C@H]2O)[C@@H]1O [Example 13, N^1-(3-(((2R,3R,4R,5S,6R)-3-Acetamido-5-(((2S,3R,4S,5S,6R)-3,5-dihydroxy-6-(hydroxymethyl)-4-(((2R,3R,4S,5R,6R)-3,4,5-trihydroxy-6-(hydroxymethyl)tetrahydro-2H-pyran-2-yl)oxy)tetrahydro-2H-pyran-2-yl)oxy)-4-hydroxy-6-(hydroxymethyl)tetrahydro-2H-pyran-2-yl)oxy)propyl)-N6-(3-((2-(5-((3aS,4S,6aR)-2-oxohexahydro-1H-thieno[3,4-d]imidazol-4-yl)pentanamido)ethyl)carbamoyl)benzyl)adipamide]"
6,34.9 nM,CC(=O)N[C@H]1[C@H](OCCCNC(=O)CCOCCOCCOCCOCCNC(=O)COc2ccc(-c3cccc(C(=O)NCCNC(=O)CCOCCOCCOCCOCCOCCOCCOCCOCCOCCOCCOCCOCCNC(=O)CCCC[C@@H]4SC[C@@H]5NC(=O)N[C@@H]54)c3)cc2)O[C@H](CO)[C@@H](O[C@@H]2O[C@H](CO)[C@H](O)[C@H](O[C@H]3O[C@H](CO)[C@H](O)[C@H](O)[C@H]3O)[C@H]2O)[C@@H]1O [Example 52]
